Test results reported in US20030094251A1, “Enhancing laccase activity using pro-oxidants and pro-degradants” (priority 2001, published 2003).

Legend:
laccase = experiment: Chicago Blue assay: mediator-enhanced laccase-catalyzed bleaching of Chicago Blue in solution; type: biochemical, Aspergillus; details: decrease in absorbance of Chicago Blue at 610 nm after 3 min, mediator (0.1 umole/ml); for ΔmA610 (3 min) at pH 5.5: pH 5.5, laccase; for ΔmA610 (3 min) at pH 7.0: pH 7.0, laccase
Method: In this example, the pro-oxidants and pro-degradants were tested individually as mediators to enhance laccase-catalyzed bleaching of Chicago Blue in solution. The Chicago Blue Dye, also known as Direct Blue 1 or DB1, is a commonly used assay for the oxidative efficiency of laccase. The Chicago Blue Dye is fully described by Schneider et al. in U.S. Pat. No. 5,885,304, which is hereby incorporated by reference.
Each of the compounds (i.e., potential mediators) was dissolved in water, or in ethanol if the potential mediator was not water soluble, and then mixed with a phosphate buffer and a Chicago Blue solution. A solution of a laccase was added to make up 1 ml of the final solution, containing […] mediator, 20 mM buffer at pH 5.5 or 7.0, 0.1-1% laccase (v/v) and Chicago Blue solution, with absorbance at A610 nm between 0.6 to 0.8. The change in the absorbance at A610 nm was measured immediately using a UV-VIS spectrophotometer (UV-1201, Shimadzu Scientific Instruments) after the enzyme was added. The decrease in absorbance was recorded at 30-second intervals for 5 minutes and was used to estimate the efficiency of the mediator.

laccase (NS51003) = experiment: Pulp bleaching with laccase and mediators, delignification measured as change in Kappa number (TAPPI T236 cm-85); design: species or system Aspergillus
Method: Delignification of the pulp was measured as the change in Kappa number according to TAPPI method T236 cm-85. Briefly, a known mass of paper pulp (containing lignin) was reacted with an excess of potassium permanganate in acid solution for a specified period of time to oxidize the lignin. After the reaction, the residual permanganate was determined by titration. The Kappa number was defined as the volume (ml) of 0.1N potassium permanganate consumed by 1 g of moisture-free pulp in 0.5N sulfuric acid after a ten-minute reaction time at 25° C. under conditions such that one-half of the permanganate remains unreacted. A linear relationship with the lignin content of the pulp and the measurement of the Kappa number has been done on samples as low as 300 mg of pulp.
A softwood Kraft pulp, Kappa number 31.0, was treated with a laccase (NS51003) under the following conditions:
The dried pulp was added to 80 ml of 50 mM phosphate, pH 5.5, and disintegrated in a blender. The pulp was then transferred to a 500-ml conical flask and the blender was washed with 20 ml of the same buffer. The washed buffer and the pulp were combined. The mediator was added at 1-4% (w/w, based on the dry pulp) followed by the addition of the laccase. The pH of the pulp mixture was adjusted to 5.5 if needed. […]
The delignification of the pulp was measured as the change in the Kappa number according to TAPPI method T236 cm-85.

Row | Structure (SMILES) | ΔmA610 (3 min) at pH 5.5 (laccase) | ΔmA610 (3 min) at pH 7.0 (laccase) | activity in enhancing bleaching (in words) (laccase (NS51003); pulp bleaching with laccase, Examples 2-6) | Kappa number reduction (in words) (laccase (NS51003); 0.1 ml of the 51003 laccase with the mediator)
1 | NC(N)=O [Urea, urea] | 1 | 0 | barely active | –
2 | On1nnc2ccccc21 [HBT, 1-hydroxybenzotriazole, reference compound] | – | – | – | modest Kappa number reduction
3 | O=C1O[C@H]([C@@H](O)CO)C(O)=C1O [Ascorbic acid, ascorbic acid] | 6 | 2 | – | –
4 | O=C(O)c1cccnc1 [Nicotinic acid, nicotinic acid] | 0 | 0 | – | –
5 | O=C(O)c1ccccc1O [Salicylic acid, salicylic acid] | 11 | – | – | –
